What was measured:
[1] = tested on: dp/dt (left ventricular blood pressure); test: Intrinsic (inotropic) action on the dp/dt; format: in vivo, dogs; settings: number of - and + signs indicates strength of the effect
[2] = tested on: changes of the dp/dt max. after isoproterenol (left ventricular blood pressure); test: Antagonism of isoproterenol-induced change of left ventricular dp/dt max. in narcotised dogs (catheter tip manometer); format: in vivo; settings: Canis lupus familiaris, iv, isoproterenol 0.5·10^-6 gram/kg i.v., cumulative doses of test substance
Procedure: Isoproterenol (0.5 ^. 10^-^6 gram/kg i.v.) was injected at intervals of 15 minutes before and after increasing doses of the test substance. The changes of the dp/dt max. after isoproterenol were determined before and after the intravenous administration of the test substance. These values were used to calculate the ED50. The doses quoted in each case are the cumulative doses of the test substance.

[3] = tested on: heart (inotropic intrinsic action); settings: words, cited from earlier work

In the case of `CCOc1ccc(OCC(O)CNC(C)CC(O)c2cccnc2)cc1` (single isomer, unassigned; (-)) [(-)-1-(3'-β-pyridyl-3'-hydroxy-1'-methyl-propylamino)-3-(p-ethoxyphenoxy)-propan-2-ol, laevo-rotatory], the “Intrinsic action on the dp/dt” value [1] is reported as 0.
Work on `CCOc1ccccc1OCC(O)CNC(C)CC(O)c1cccnc1` (single isomer, unassigned; (-)) [(-)-1-β-Pyridyl-3-[3-(o-ethoxyphenoxy)-2-hydroxy-propylamino]-butan-1-ol (laevo-rotatory)] yielded an ED50 [2] of 0.0026 mg/kg.
For `CCOc1ccccc1OCC(O)CNC(C)CC(O)c1cccnc1` (stereo not drawn) [1-(3'-β-Pyridyl-3'-hydroxy-1'-methyl-propylamino)-3-(o-ethoxyphenoxy)-propan-2-ol], the “Intrinsic action on the dp/dt” value [1] was 0 and the ED50 [2] was 0.0151 mg/kg.
In the case of `CC(CC(O)c1cccnc1)NCC(O)COc1ccccc1-c1ccccc1` (stereo not drawn) [1-(3'-β-Pyridyl-3'-hydroxy-1'-methyl-propylamino)-3-(o-phenylphenoxy)-propan-2-ol], the “Intrinsic action on the dp/dt” value [1] is reported as 0.
In the case of `COc1cccc(OCC(O)CNC(C)CC(O)c2cccnc2)c1` (stereo not drawn) [1-(3'-β-pyridyl-3'-hydroxy-1'-methyl-propylamino)-3-(m-methoxyphenoxy)-propan-2-ol], the ED50 [2] is reported as 0.012 mg/kg.
For `Cc1cccc(OCC(O)CNC(C)CC(O)c2cccnc2)c1` (stereo not drawn) [1-(3'-β-pyridyl-3'-hydroxy-1'-methyl-propylamino)-3-(m-methylphenoxy)-propan-2-ol], the ED50 [2] was 0.0175 mg/kg.
Work on `C=CCOc1ccccc1OCC(O)CNC(C)CC(O)c1cccnc1` (stereo not drawn) [1-(3'-β-pyridyl-3'-hydroxy-1'-methyl-propylamino)-3-(o-allyloxyphenoxy)-propan-2-ol] yielded an ED50 [2] of 0.008 mg/kg.
In the case of `C=CCc1ccccc1OCC(O)CNC(C)CC(O)c1cccnc1` (stereo not drawn) [1-(3'-β-pyridyl-3'-hydroxy-1'-methyl-propylamino)-3-(o-allylphenoxy)-propan-2-ol], the ED50 [2] is reported as 0.0178 mg/kg.
With `CC(CC(O)c1cccnc1)NCC(O)COc1ccccc1Cl` (stereo not drawn) [1-(3'-β-pyridyl-3'-hydroxy-1'-methyl-propylamino)-3-(o-chlorophenoxy)-propan-2-ol] the “Intrinsic action on the dp/dt” value [1] was 0 and the ED50 [2] was 0.0082 mg/kg.
Work on `COc1ccccc1OCC(O)CNC(C)CC(O)c1cccnc1` (stereo not drawn) [1-(3'-β-pyridyl-3'-hydroxy-1'-methyl-propylamino)-3-(o-methoxyphenoxy)-propan-2-ol] yielded an ED50 [2] of 0.006 mg/kg.
Work on `CC(=O)Nc1ccc(OCC(O)CNC(C)CC(O)c2cccnc2)cc1` (stereo not drawn) [1-(3'-β-pyridyl-3'-hydroxy-1'-methyl-propylamino)-3-(p-acetamino-phenoxy)-propan-2-ol] yielded an ED50 [2] of 0.0146 mg/kg.
With `CC(CC(O)c1cccnc1)NCC(O)COc1ccc(Cl)cc1` (stereo not drawn) [1-(3'-β-pyridyl-3'-hydroxy-1'-methyl-propylamino)-3-(p-chlorophenoxy)-propan-2-ol] the ED50 [2] was 0.03 mg/kg.
`CCOc1ccc(OCC(O)CNC(C)CC(O)c2cccnc2)cc1` (stereo not drawn) [1-(3'-β-pyridyl-3'-hydroxy-1'-methyl-propylamino)-3-(p-ethoxyphenoxy)-propan-2-ol] gave an ED50 [2] of 0.0448 mg/kg.
For `CCCCCOc1ccc(OCC(O)CNC(C)CC(O)c2cccnc2)cc1` (stereo not drawn) [1-(3'-β-pyridyl-3'-hydroxy-1'-methyl-propylamino)-3-(p-pentoxyphenoxy)-propan-2-ol], the “Intrinsic action on the dp/dt” value [1] was 0 and the ED50 [2] was 0.0184 mg/kg.
Molecule `CCCOc1ccc(OCC(O)CNC(C)CC(O)c2cccnc2)cc1` (stereo not drawn) [1-(3'-β-pyridyl-3'-hydroxy-1'-methyl-propylamino)-3-(p-propoxyphenoxy)-propan-2-ol] has an ED50 [2] of 0.0167 mg/kg.
For `CC(C)NCC(O)COc1cccc2ccccc12` (stereo not drawn) [Propranolol], the ED50 [2] is given as 0.0561 mg/kg, the “inotropic intrinsic action (clinical practice)” value [3] is given as “strongly negative-inotropic intrinsic action” and the cardiac insufficiency risk ([3]; clinical practice) is given as “capable of causing an acute cardiac insufficiency or liable to intensify an already existing cardiac insufficiency”.
